Assay results taken from patent US20110287080A1, “COATING II” (SMITH & NEPHEW PLC, priority 2008, published 2011).

Assay: Elution of rapamycin from polymer-coated stents into PBS at 37° C., monitored by UV/vis
Type: physicochemical
Conditions: stent coating with 25% rapamycin, cumulative absorbance at 279 nm
Protocol: Solutions were prepared by dissolving the polymers listed in Table 1 in CHCl3 with 25% (by weight of the solid polymer) rapamycin. After cooling for 5 minutes, the stents were attached to a mandrel and coated on the Sonotek MediCoat Benchtop Coater with a 0.5% w/w solution in CHCl3 of polymer/drug (75/25). The parameters used were: 0.09 ml/min flow rate, 1.0 W ultrasonic power, 16 passes, 40 rpm rotation, 0.13 cm/s horizontal travel and 25 mm from stent to spray head. After coating, the stents were dried under vacuum for 16 hours at 40° C. The stents were released into phosphate buffered saline solution (PBS) at 37° C. and the elution monitored by UV/vis spectroscopy. Fresh buffer solution was added after each reading and the cumulative absorbance at 279 nm was recorded.

For `CCCCCCCCCCCC(=O)O` [lauric acid], the “rate of release (elution) of rapamycin” value was “minimal affect on the rate of release of rapamycin”.
